In paper PMC6422238, “Absence of a human ortholog of rodent Kupffer cell galactose-binding receptor encoded by the CLEC4f gene” (Glycobiology, 2019):

Legend:
Bovine CLEC4f protein = biological target: T1, Bovine CLEC4f protein (Bos taurus, UniProt A0AAA9RVQ7); assay: affinity chromatography on galactose-Sepharose; format: binding; conditions: immobilised galactose (divinyl sulfone coupling); 25 mM CaCl2, 150 mM NaCl, pH 7.8; Ca2+-dependent, eluted with EDTA
T1 construct: C-terminal fragment of the extracellular domain (neck + CRD), E. coli BL21(DE3) inclusion bodies, renatured; 35 kDa calculated; trimer; borders only in supplement
T1 sequence (A0AAA9RVQ7 274-591 limits assumed): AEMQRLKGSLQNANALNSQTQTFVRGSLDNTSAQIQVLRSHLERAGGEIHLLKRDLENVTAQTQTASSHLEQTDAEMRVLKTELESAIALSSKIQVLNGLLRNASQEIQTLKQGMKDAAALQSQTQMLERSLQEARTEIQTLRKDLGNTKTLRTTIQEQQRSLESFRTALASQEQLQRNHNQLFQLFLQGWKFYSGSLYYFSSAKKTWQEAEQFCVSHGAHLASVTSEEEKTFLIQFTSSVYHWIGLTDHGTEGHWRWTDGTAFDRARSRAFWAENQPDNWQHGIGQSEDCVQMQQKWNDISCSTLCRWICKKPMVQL

[1] = biological target: T2, Murine CLEC4f protein; murine Kupffer cell receptor (Mus musculus, UniProt P70194); assay: affinity re-purification of the labelled protein on galactose-Sepharose; format: binding; conditions: immobilised galactose; 25 mM CaCl2, 150 mM NaCl, pH 7.8; eluted with EDTA; fluorescein-labelled protein
T2 construct: fluorescein isothiocyanate labelled
T2 sequence (P70194 70-548 limits assumed): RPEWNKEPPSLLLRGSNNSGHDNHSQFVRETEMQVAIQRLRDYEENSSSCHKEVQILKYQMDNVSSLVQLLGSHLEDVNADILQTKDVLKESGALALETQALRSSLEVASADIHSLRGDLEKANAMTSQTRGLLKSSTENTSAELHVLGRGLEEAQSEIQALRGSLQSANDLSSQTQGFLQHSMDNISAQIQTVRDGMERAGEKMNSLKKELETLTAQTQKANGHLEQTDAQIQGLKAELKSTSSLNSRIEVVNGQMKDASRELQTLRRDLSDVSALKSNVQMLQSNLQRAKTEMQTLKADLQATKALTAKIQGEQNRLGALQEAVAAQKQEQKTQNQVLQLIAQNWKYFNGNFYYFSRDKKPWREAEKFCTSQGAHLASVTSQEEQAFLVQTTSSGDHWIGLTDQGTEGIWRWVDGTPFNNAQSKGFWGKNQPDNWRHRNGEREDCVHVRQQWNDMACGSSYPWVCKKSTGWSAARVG

**Q.** With `OC[C@H]1OC(O)[C@H](O)[C@@H](O)[C@H]1O` (some centres unmarked) [galactose] as the compound, how does the “affinity chromatography on galactose-Sepharose” value (Bovine CLEC4f protein) read?
**A.** The value was “confirming that it has galactose-binding activity”.

**Q.** What about the “affinity re-purification of the labelled protein on galactose-Sepharose” value [1] of the same compound?
**A.** The value was “the chimpanzee, bovine and murine proteins all bind to galactose”.
